Results from patent US7855191B2, “Agent having a destructive effect on malignant tumors and method for the production thereof” (C.Y.L. Pharmazeutika GmbH, priority 2002, dated 2010).

What was measured:
[1] = system: malignant brain tumors; details: cited from earlier work
[2] = system: mammary carcinoma; details: rats with 1-methyl-1-nitro urea induced mammary cancer; cited from earlier work
[3] = Compatibility of selenium compounds with alpha-ketoglutaric acid in the preparation; type: physicochemical; details: for reaction / compatibility with alpha-ketoglutaric acid: on addition to the preparation of EP 326826 B1
Method: Thus initially the research was carried out by the addition of selenium in the form of selenite. […] Attempts were made to suppress this redox reaction by incorporating the selenium in organic compounds. As such a compound, finally seleno-methionine was selected. […] However, with the addition of this compound as a complement to the composition of European Patent 326826 B1 there is a danger that this substance will be incorporated into body proteins, and effect which might reduce the desired effect of the N-acetyl-seleno-L-methionine or cause the effect of that compound to be completely lost.

Compound | general well-being of the patients ([1]; manifested by erythrocyte number, hemoglobin value, thrombocyte count) | patients who felt a reduction in unpleasant side effects ([1]; patients with malignant brain tumors) [%] | density of the intra tumoral microvessels in the mammary carcinoma [2] | reaction / compatibility with alpha-ketoglutaric acid [3] | Maillard reaction with ketoglutaric acid ([3]; especially at the higher temperatures of heat sterilization)
O=[Se]([O-])[O-].[Na+].[Na+] [selenite, Na-selenite] | improvement in the general well-being | 76 | significantly reduced | amorphous selenium precipitated out | –
C[Se]CC[C@H](N)C(=O)O [seleno-methionine] | – | – | – | does not react with the alphaketoglutaric acid | undergoes a Maillard reaction with the ketoglutaric acid
